# Test results from patent US20100068208A1, “Degranulation inhibitor” (priority 2005, published 2010).
# Where two headings read alike, the source gives them in different places.
# Assays:
# [1] = system: human mast cell line LAD 2; experiment: TGR12 ligand-dependent degranulation of LAD 2 (β-hexosaminidase release); assay type: cell-based
# Description: Human mast cell line LAD 2 was incubated in StemPro-34 medium (Invitrogen) supplemented with 100 ng/mL of stem cell factor (Immuno-Biological Laboratories Co., Ltd.). […] Subsequently, Tyrode's buffer containing 50 μL of TGR12 ligand (Peptide Institute, Inc.) in various concentrations was added and incubation was continued at 37° C. for further 20 minutes to induce degranulation. The degree of degranulation was determined by assaying the β-hexosaminidase activity in the degranulation assay supernatant as given below. The supernatant was dispensed into a 96-well plate and 0.1M citrate (pH 4.5)/1 mM 4-methyl umbelliferyl-2-acetamido-2-deoxy-beta-D-glucopyranoside (Wako Pure Chemical) in 5-fold of the supernatant was added thereto, followed by incubation at 37° C. for an hour. […] The activity was then assayed using Fusion-α (Perkin-Elmer). The β-hexosaminidase activity was also shown by the activity in the supernatant obtained by centrifugation after freezing and thawing LAD 2 four times, which was made total β-hexosaminidase activity in LAD 2, and the degree of degranulation was shown as the percentage of the β-hexosaminidase activity in the LAD 2 supernatant based on the total β-hexosaminidase activity.
# TGR12 = assay type: cell-based, human
# Description: CHO/dhfr^− cells (hereinafter CHO) were incubated in α-MEM (Invitrogen) supplemented with 10% fetal calf serum. After a termination codon in the TGR12-encoding nucleotide sequence was removed, a nucleotide sequence ligated with the nucleotide sequence encoding GFP (Wako Pure Chemical) [hereinafter briefly referred to as TGR12-GFP (DNA having the nucleotide sequence represented by SEQ ID NO: 31)] was incorporated into vector plasmid pAKKO-111H (the same vector plasmid as pAKKO1.11H described in Biochim. Biophys. Acta, 1219, 251-259 (1994)) for animal cell expression, and the vector plasmid was stably expressed to establish TGR12-GFP-expressed CHO cell line (hereinafter CHO-TGR12). CHO-TGR12 was incubated in nucleic acid-free α-MEM medium (Invitrogen) containing 10% dialyzed fetal calf serum.
# CHO-TGR12 was plated in a 96-well plate at a density of 30,000 cells/well. After incubation overnight, the medium was discarded and 100 μL/well of assay buffer [Hank's Balanced Salt Solution (Invitrogen), 20 mM HEPES (Dojin Chemical Laboratory) and 2.5 mM Probenecid (Sigma)] containing 4 μM Fluo3-AM (Dojin Chemical Laboratory) was added, which was then allowed to stand for an hour at 37° C. […] After the cells were washed with assay buffer, fluorescence reflecting changes in intracellular calcium levels was assayed on FLIPR (Molecular Device). Ten seconds after initiation of the assay, 50 μL of a sample was added at a rate of 50 μL/second. Fluorescence measurement was taken every 1 second during the first 60 seconds and then every 6 seconds during the next 120 seconds; the highest fluorescence intensity over a 3 minute period was taken as the maximum activity under the stimulation condition, representing the mean value of 3 wells. The EC50 values were determined using Graphpad PRISM 4 (Graphpad Software).
# RBL-2H3 = experiment: Intracellular calcium increasing activity in RBL2H3 (FLIPR); assay type: cell-based; design: unit not given here
# Description: RBL-2H3 (hereinafter RBL2H3) was incubated in α-MEM (Invitrogen) supplemented with 10% fetal calf serum. Vector plasmid pcDNA3.1 for animal cell expression, in which the nucleotide sequence containing the initiation codon to the termination codon of human TGR12 (DNA having the nucleotide sequence represented by SEQ ID NO: 32) was incorporated, was stably expressed in RBL-2H3 to establish human TGR12-expressed RBL-2H3 cell line (hereinafter RBL2H3-TGR12). RBL2H3-TGR12 was incubated in α-MEM (Invitrogen) supplemented with 10% fetal calf serum and 200 μg/mL of Geneticin.
# The intracellular calcium increasing activity was assayed as follows. RBL2H3 and RBL2H3-TGR12 were plated in a 96-well plate at a density of 40,000 cells/well and incubated overnight. The medium was then discarded and 100 μL/well of 4 μM Fluo3-AM (Dojin Kagaku)-containing assay buffer [Hank's Balanced Salt Solution (Invitrogen), 20 mM HEPES (Dojin Kagaku) and 2.5 mM Probenecid (Sigma)] was added. The mixture was allowed to stand for an hour at 37° C. Various TGR12 (Peptide Institute, Inc.) or calcium ionophore A23187 (Wako Pure Chemical) was diluted in 0.05% CHAPS-containing assay buffer. After the cells were washed with the assay buffer, fluorescence emitted with changes in intracellular calcium was measured using FLIPR (Molecular Device). A sample, 50 μL, was added at a rate of 50 μL/sec. 10 seconds after initiation of the assay. Fluorescence was measured every 1 second during the first 60 seconds and every 6 seconds during the next 120 seconds. The highest fluorescence intensity during 3 minutes was made the maximum activity under the stimulation conditions, which was taken as an average of 3 wells. The EC50 values were calculated using Graphpad PRISM 4 (Graphpad Software).
# [2] = CHO-TGR12, 0.3 nM, highest fluorescence intensity over 3 minutes
Structure (SMILES),EC50 [1] [nM],"stimulated degranulation (β-hexosaminidase in supernatant, % of total) ([1]; LAD 2, 3 nM) [%]","stimulated degranulation (β-hexosaminidase in supernatant, % of total) ([1]; LAD 2, 10 nM) [%]","stimulated degranulation (β-hexosaminidase in supernatant, % of total) ([1]; LAD 2, 30 nM) [%]","stimulated degranulation (β-hexosaminidase in supernatant, % of total) ([1]; LAD 2, 100 nM) [%]","stimulated degranulation (β-hexosaminidase in supernatant, % of total) ([1]; LAD 2, 300 nM) [%]","stimulated degranulation (β-hexosaminidase in supernatant, % of total) ([1]; LAD 2, 1 μM) [%]",maximum activity in the calcium increasing effect (TGR12; [2]),"maximum activity in the calcium increasing effect (TGR12; CHO-TGR12, 3 nM)","maximum activity in the calcium increasing effect (TGR12; CHO-TGR12, 30 nM)","maximum activity in the calcium increasing effect (TGR12; CHO-TGR12, 300 nM)","maximum activity in the calcium increasing effect (TGR12; CHO-TGR12, 3000 nM)","EC50 (TGR12; CHO-TGR12, read-out: EC50 in the calcium increasing effect on CHO-TGR12) [nM]","maximum activity in the calcium increasing effect (RBL-2H3; RBL2H3, 1 nM)","maximum activity in the calcium increasing effect (RBL-2H3; RBL2H3, 10 nM)","maximum activity in the calcium increasing effect (RBL-2H3; RBL2H3, 100 nM)","maximum activity in the calcium increasing effect (RBL-2H3; RBL2H3, 1 μM)","maximum activity in the calcium increasing effect (RBL-2H3; RBL2H3, 10 μM)","stimulated degranulation (β-hexosaminidase in supernatant, % of total) ([1]; LAD 2, 3 μM) [%]"
"CC(C)C[C@H](NC(=O)[C@H](C)NC(=O)[C@H](Cc1c[nH]c2ccccc12)NC(=O)[C@H](CCCCN)NC(=O)[C@H](CC(N)=O)NC(=O)[C@H](Cc1c[nH]c2ccccc12)NC(=O)[C@H](CCCCN)NC(=O)[C@H](CCCCN)NC(=O)[C@H](CCCNC(=N)N)NC(=O)[C@@H](N)Cc1ccccc1)C(=O)N[C@@H](CO)C(=O)N[C@@H](CCCNC(=N)N)C(N)=O [PAMP-12, proadrenomedullin N-terminal 20 peptide (9-20)]",~13,6.3,30.7,52.1,65.2,67.7,69.3,255,1617,22291,24088,23743,~98,52,52,35,44,43,
CSCC[C@H](NC(=O)[C@H](CCCNC(=N)N)NC(=O)[C@@H](N)CC(=O)O)C(=O)N1CCC[C@H]1C(=O)N[C@H]1CSSC[C@@H](C(=O)N[C@@H](CCCCN)C(=O)O)NC(=O)[C@H](CO)NC(=O)[C@H](CO)NC(=O)[C@H](Cc2ccccc2)NC(=O)[C@H]([C@@H](C)O)NC(=O)[C@H](CCCCN)NC(=O)[C@H](Cc2c[nH]c3ccccc23)NC(=O)[C@H](Cc2ccccc2)NC(=O)[C@H](Cc2ccccc2)NC(=O)[C@H](CC(N)=O)NC(=O)[C@H](CCCNC(=N)N)NC1=O [cortistatin-17],,,1.6,2.8,26.5,52.8,62.2,67,54,94,17914,23647,,67,78,54,49,52,58.9
